From patent US20110305784A1, “Fractionated products obtained from gamboge resin, and medical uses of the same” (priority 2010, published 2011)
In brackets after ≈: the same amount, converted by molar mass. Like-named read-outs stand apart in the source and are kept apart here.

Assays:
[1] = tested on: Human histocytic lymphoma cell U937; assay: cells; details: for CC50: U-937, read-out: LC50 (50% lethal concentration)
Description: (§1) The in vitro anti-cancer test was primarily used to detect the effect of a candidate drug on cancer cell proliferation. The working principle involved therein is the ability of viable cells to shift alamarBlue (AbD Serotec, UK) from its originally non-fluorescent oxidized state (non-fluorescent, blue) to a reduced form (fluorescent, red) having fluorescence via metabolic reaction. According to the fluorescent data result generated by the alamarBlue reagent thus obtained, the proliferation of the viable cells and cell activity can be quantified for detection.
(§2) In the in vitro anti-cancer tests, a candidate drug was tested at 5 different concentrations of 0.01, 0.1, 1, 10, and 100 μg/ml, and six human cancer cell lines and a normal human cell line were used (see Table 10).

[2] = tested on: Human breast adenocarcinoma cell MCF7; assay: cells; details: for CC50: MCF7, read-out: LC50 (50% lethal concentration)
Description: as §1, §2

[3] = tested on: Human umbilical venal epithelial cell (HUVEC); assay: in vitro; details: HUVEC; for IC50: Homo sapiens
Description: as §1, §2

in vitro = details: human
Description: as §1, §2

[4] = tested on: Human colon adenocarcinoma cell HT-29; assay: cells; details: for CC50: HT-29, read-out: LC50 (50% lethal concentration)
Description: as §1, §2

[5] = tested on: Human promyelocytic leukemia cell HL-60; assay: cells; details: for CC50: HL-60, read-out: LC50 (50% lethal concentration)
Description: as §1, §2

[6] = tested on: Human lung carcinoma cell A549; assay: cells; details: for CC50: A549, read-out: LC50 (50% lethal concentration)
Description: as §1, §2

[7] = tested on: Human hepatocellular carcinoma cell HepG2; assay: cells; details: for CC50: HepG2, read-out: LC50 (50% lethal concentration)
Description: as §1, §2

[8] = MCF7, read-out: IC50 (50% inhibition concentration)
[9] = U-937, read-out: IC50 (50% inhibition concentration), U937
[10] = HT-29, read-out: IC50 (50% inhibition concentration), HT-29
[11] = HL-60, read-out: IC50 (50% inhibition concentration), HL-60
[12] = MCF7, read-out: IC50 (50% inhibition concentration), MCF-7
[13] = A549, read-out: IC50 (50% inhibition concentration), A549
[14] = HepG2, read-out: IC50 (50% inhibition concentration), HepG2
[15] = read-out: IC50 (50% inhibition concentration), HUVEC
[16] = HL-60, read-out: IC50 (50% inhibition concentration)
[17] = U-937, read-out: IC50 (50% inhibition concentration)
[18] = HT-29, read-out: IC50 (50% inhibition concentration)
[19] = A549, read-out: IC50 (50% inhibition concentration)
[20] = HepG2, read-out: IC50 (50% inhibition concentration)
[21] = read-out: IC50 (50% inhibition concentration)

SMILES | CC50 [1] [µg/mL] | LC50 (50% lethal concentration) [3] [µg/mL] | CC50 [4] [µg/mL] | CC50 [5] [µg/mL] | CC50 [2] [µg/mL] | CC50 [6] [µg/mL] | CC50 [7] [µg/mL] | IC50 [5, 16] [µg/mL] | also measured
CC(C)=CCC[C@]1(C)C[C@H](O)c2c(O)c3c(c(CC=C(C)C)c2O1)O[C@]12C(=C[C@@H]4CC1C(C)(C)O[C@]2(C/C=C(/C)C(=O)O)C4=O)C3=O (stereo in doubt) [Gh-2641-1, neogambogic acid] | 1 (≈ 1.55 µM) | 4.3 (≈ 6.65 µM) | – | – | – | – | – | – | IC50 [2, 8]: 0.2 µg/mL (≈ 0.309 µM)
CC(C)=CCC[C@@]1(C)C=Cc2c(O)c3c(c(CC(O)C(C)(C)O)c2O1)O[C@]12C(=C[C@@H]4CC1C(C)(C)OC2(C/C=C(/C)C(=O)O)C4=O)C3=O (stereo partly shown) [Gh-1036, epiformoxanthone F] | 0.81 (≈ 1.22 µM) | – | 12 (≈ 18.1 µM) | 3.1 (≈ 4.68 µM) | 3.8 (≈ 5.73 µM) | 0.52 (≈ 0.785 µM) | 8.6 (≈ 13 µM) | – | CC50 (in vitro): 4.8 µg/mL (≈ 7.24 µM)
CC(C)=CCC[C@]1(C)C=Cc2c(O)c3c(c(CC(O)C(C)(C)O)c2O1)O[C@]12C(=C[C@@H]4CC1C(C)(C)OC2(C/C=C(/C)C(=O)O)C4=O)C3=O (stereo partly shown) [Gh-1052, formoxanthone F] | 0.69 (≈ 1.04 µM) | – | 5.7 (≈ 8.6 µM) | 3.4 (≈ 5.13 µM) | 2.4 (≈ 3.62 µM) | 2.5 (≈ 3.77 µM) | 4 (≈ 6.04 µM) | – | CC50 (in vitro): 3.1 µg/mL (≈ 4.68 µM)
CC(C)=CCC[C@]1(C)C=Cc2c(O)c3c(c(CC=C(C)C)c2O1)O[C@]12C(=C[C@@H]4CC1C(C)(C)O[C@]2(C/C=C(/CO)C(=O)O)C4=O)C3=O [Gh-1601-A, 30-hydroxygambogic acid] | 0.28 (≈ 0.434 µM) | – | 0.77 (≈ 1.19 µM) | 3 (≈ 4.65 µM) | 4.4 (≈ 6.82 µM) | 6.6 (≈ 10.2 µM) | 4.1 (≈ 6.36 µM) | – | IC50 [1, 9]: 0.09 µg/mL (≈ 0.14 µM); IC50 [4, 10]: 0.17 µg/mL (≈ 0.264 µM); IC50 [5, 11]: 0.56 µg/mL (≈ 0.869 µM); IC50 [2, 12]: 0.72 µg/mL (≈ 1.12 µM); IC50 [6, 13]: 0.11 µg/mL (≈ 0.171 µM); IC50 [7, 14]: 1.3 µg/mL (≈ 2.02 µM); IC50 [3, 15]: 0.19 µg/mL (≈ 0.295 µM)
CC(C)=CCC[C@@]1(C)C=Cc2c(O)c3c(c(CC=C(C)C)c2O1)O[C@]12C(=C[C@@H]4CC1C(C)(C)O[C@]2(C/C=C(/CO)C(=O)O)C4=O)C3=O [Gh-1602, 30-hydroxyepigambogic acid] | 0.69 (≈ 1.07 µM) | – | 4.2 (≈ 6.51 µM) | 3.3 (≈ 5.12 µM) | 4 (≈ 6.2 µM) | 3.7 (≈ 5.74 µM) | 3.5 (≈ 5.43 µM) | – | IC50 [1, 9]: 0.14 µg/mL (≈ 0.217 µM); IC50 [4, 10]: 0.94 µg/mL (≈ 1.46 µM); IC50 [5, 11]: 1 µg/mL (≈ 1.55 µM); IC50 [2, 12]: 0.27 µg/mL (≈ 0.419 µM); IC50 [6, 13]: 0.4 µg/mL (≈ 0.62 µM); IC50 [7, 14]: 1.3 µg/mL (≈ 2.02 µM); IC50 [3, 15]: 0.25 µg/mL (≈ 0.388 µM)
CC(C)=CCC[C@]1(C)C=Cc2c(O)c3c(c(CC=C(C)C)c2O1)O[C@]12C(=C[C@@H]4CC1C(C)(C)O[C@]2(C/C=C(\C)C(=O)O)C4=O)C3=O [Gh-1641, isogambogic acid] | – | 1.3 (≈ 2.07 µM) | – | – | – | 3 (≈ 4.77 µM) | – | 8 (≈ 12.7 µM) | –
CC(C)=CCC[C@@]1(C)C=Cc2c(O)c3c(c(CC=C(C)C)c2O1)O[C@]12C(=C[C@@H]4CC1C(C)(C)O[C@]2(C/C=C(\C)C(=O)O)C4=O)C3=O [Gh-1642, epiisogambogic acid] | – | 1.3 (≈ 2.07 µM) | – | – | – | – | – | 6 (≈ 9.54 µM) | –
CC(C)=CCc1c2c(c(O)c3c1O[C@]14C(=C[C@@H]5CC1C(C)(C)O[C@]4(C/C=C(\C)C=O)C5=O)C3=O)C=CC(C)(C)O2 [Gh-2501, isomorellin] | – | 1.8 (≈ 3.3 µM) | 4 (≈ 7.34 µM) | 4 (≈ 7.34 µM) | – | – | – | 1 (≈ 1.84 µM) | IC50 [1, 17]: 0.9 µg/mL (≈ 1.65 µM)
CC(C)=CCC/C(C)=C/Cc1c(O)c(CC=C(C)C)c2c(c1O)C(=O)C1=C[C@@H]3CC4C(C)(C)O[C@](C/C=C(/C)C(=O)O)(C3=O)[C@@]14O2 [Gh-2505, gambogenic acid] | – | 2.3 (≈ 3.65 µM) | – | – | – | – | – | – | –
C=C(C)[C@@H]1CC[C@@]2(C)CC1c1c(O)c3c(c(CC=C(C)C)c1O2)O[C@]12C(=C[C@@H]4CC1C(C)(C)O[C@]2(/C=C/C(C)C(=O)O)C4=O)C3=O (stereo partly drawn) [Gh-2507, β-epigambogellic acid] | – | 21.0 (≈ 33.4 µM) | – | – | – | – | – | 0.2 (≈ 0.318 µM) | –
C=C(C)C1CC[C@]2(C)C[C@H]1c1c(O)c3c(c(CC=C(C)C)c1O2)O[C@]12C(=C[C@@H]4CC1C(C)(C)O[C@]2(/C=C/C(C)C(=O)O)C4=O)C3=O (stereo partly drawn) [Gh-2508, β-gambogellic acid] | – | 5.4 (≈ 8.59 µM) | – | – | – | – | – | – | –
C=C(C)[C@@H]1CC[C@@]2(C)CC1c1c(O)c3c(c(CC=C(C)C)c1O2)O[C@]12C(=C[C@@H]4CC1C(C)(C)O[C@]2(C/C=C(/C)C(=O)O)C4=O)C3=O [Gh-2603-1, epigambogellic acid] | 3.1 (≈ 4.93 µM) | – | 3.7 (≈ 5.88 µM) | 2.9 (≈ 4.61 µM) | 4.2 (≈ 6.68 µM) | 0.34 (≈ 0.541 µM) | 3.3 (≈ 5.25 µM) | 1 (≈ 1.59 µM) | IC50 [1, 17]: 1.3 µg/mL (≈ 2.07 µM); IC50 [4, 18]: 1.6 µg/mL (≈ 2.54 µM); IC50 [2, 8]: 2.2 µg/mL (≈ 3.5 µM); IC50 [6, 19]: 0.036 µg/mL (≈ 0.0573 µM); IC50 [7, 20]: 1 µg/mL (≈ 1.59 µM); IC50 [3, 21]: 0.26 µg/mL (≈ 0.414 µM)
C=C(C)C1CC[C@]2(C)C[C@H]1c1c(O)c3c(c(CC=C(C)C)c1O2)O[C@]12C(=CC4CC1C(C)(C)O[C@]2(C/C=C(/C)C(=O)O)C4=O)C3=O (stereo partly shown) [Gh-2603-2, gambogellic acid] | 3.6 (≈ 5.73 µM) | – | 3.9 (≈ 6.2 µM) | 2.4 (≈ 3.82 µM) | 4.2 (≈ 6.68 µM) | 0.47 (≈ 0.748 µM) | 3.5 (≈ 5.57 µM) | 0.93 (≈ 1.48 µM) | IC50 [1, 17]: 1.5 µg/mL (≈ 2.39 µM); IC50 [4, 18]: 1.4 µg/mL (≈ 2.23 µM); IC50 [2, 8]: 2.2 µg/mL (≈ 3.5 µM); IC50 [6, 19]: 0.2 µg/mL (≈ 0.318 µM); IC50 [7, 20]: 0.65 µg/mL (≈ 1.03 µM); IC50 [3, 21]: 0.14 µg/mL (≈ 0.223 µM)
CC(C)=CCC[C@]1(C)C=Cc2c(O)c3c(c(CC=C(C)C)c2O1)O[C@]12C(=C[C@@H]4CC1C(C)(C)OC2(C/C=C(/C)C(=O)O)C4=O)C3=O [Gh-2605, gambogic acid] | – | 1.6 (≈ 2.54 µM) | – | – | – | – | – | – | –
CC(C)=CCC[C@@]1(C)C=Cc2c(O)c3c(c(CC=C(C)C)c2O1)O[C@]12C(=C[C@@H]4CC1C(C)(C)O[C@]2(C/C=C(/C)C(=O)O)C4=O)C3=O [Gh-2606, epigambogic acid] | – | 1.4 (≈ 2.23 µM) | 2 (≈ 3.18 µM) | – | – | – | 3 (≈ 4.77 µM) | – | IC50 [6, 19]: 0.1 µg/mL (≈ 0.159 µM)
CC(C)=CCc1c2c(c(O)c3c1O[C@@]1(C)CCC4C3C1C4(C)C)C(=O)C1=C[C@@H]3CC4C(C)(C)O[C@](C/C=C(/C)C(=O)O)(C3=O)[C@@]14O2 [Gh-2607-1A, epiformoxanthone B] | – | 1.5 (≈ 2.39 µM) | – | – | – | – | – | – | –
CC(C)=CCc1c2c(c(O)c3c1O[C@]1(C)CCC4[C@H]3C1C4(C)C)C(=O)C1=CC3CC4C(C)(C)O[C@](C/C=C(/C)C(=O)O)(C3=O)[C@@]14O2 [Gh-2607-B, formoxanthone B] | – | 1.6 (≈ 2.54 µM) | 1 (≈ 1.59 µM) | – | – | – | 4 (≈ 6.36 µM) | – | IC50 [1, 17]: 0.1 µg/mL (≈ 0.159 µM); IC50 [4, 18]: 0.3 µg/mL (≈ 0.477 µM); IC50 [2, 8]: 0.1 µg/mL (≈ 0.159 µM); IC50 [6, 19]: 0.1 µg/mL (≈ 0.159 µM); IC50 [3, 21]: 0.07 µg/mL (≈ 0.111 µM)
CC(C)=CCC/C(C)=C/Cc1c(O)c(CC=C(C)C)c2c(c1O)C(=O)C1=C[C@@H]3CC4C(C)(C)O[C@](C/C=C(\C)C(=O)O)(C3=O)[C@@]14O2 [Gh-2642, isogambogenic acid] | – | 11 (≈ 17.4 µM) | – | – | – | – | – | 9 (≈ 14.3 µM) | IC50 [2, 8]: 3 µg/mL (≈ 4.76 µM)
CC(C)=CCC/C(C)=C/Cc1c(O)c(CC=C(C)C)c2c(c1O)C(=O)C1=C[C@@H]3CC4C(C)(C)OC(CC=C(C)C)(C3=O)[C@@]14O2 [Gh-4301, desoxygambogenin] | > 100 | 1.3 (≈ 2.16 µM) | – | > 100 | – | – | – | – | –
